Read-outs that look alike come from different tables or passages of the source.

The subject of series [1] is small cell lung cancer cell line H1048. The series is described as follows: MTT proliferation, small cell lung cancer cell line H1048. In kind it is cell-based. Particulars: read-out: IC50 (μM) of compounds in small cell lung cancer cells, H1048. The essentials: (§1)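 MTT assay: cells seeded at 2 to 4×10^4 cells/mL, grown 24 h, then exposed to compound for 72 h. MTT added for 4 h, formazan dissolved in DMSO and absorbance read at 570 nm; IC50 taken from the S-shaped concentration-inhibition curve.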

For series [2], the system named is BGC-823 gastric cancer cells. The experiment in a line: Mouse transplanted gastric cancer model. In kind it is in vivo, C57BL/6j nude mice. Particulars: BGC-823 transplanted mice, intragastric 500 ug/time/animal every day, 18 days; for tumor weight: control 1.73 g. Here is the method:
The feeding of the mouse model in the drug evaluation follows that: mice are fed and treated in a laminar flow cabinet, with 5 nude mice in each cage, drinking water and feedstuffs are added once every 3 days, and paddings are replaced once a week; a number of mice kept in each cage is no more than 5, the mice in separate cages are kept in groups as far as possible, and the mice should not be kept in a single cage; the animal management must conform to the relevant national standards on animal feeding management, and the behavioral needs of animals should be concerned at the same time to avoid unnecessary stress; the normal physiological and behavioral needs of animals, such as defecation, urination, constant body temperature maintenance, normal activities, posture adjustment and reproduction are met; good ventilation and dry animals are kept; the animals can access to drinking water and food at will, and supplementation, replacement and cleaning operations are easily carried out; a solid and safe environment is provided to avoid accidents of animals, such as escaping or limb trapping in a gap; the animals are avoided from being damaged by sharp edges or protrusions; and the animals are not disturbed during observation.
A mouse transplanted gastric cancer model was established and a drug was evaluated. 2×10^7 BGC-823 gastric cancer cells were suspended in 100 μL of PBS to be inoculated into an anterior chest wall of C57BL/6j nude mice, disinfection was carried out with 75% ethanol, and the most obvious part of apical impulse was touched with hand to inoculate the cells to a left ventricle in a second intercostal space about 3 mm to the left of the sternum. About one week later, when the transplanted tumor reached about 100 mm^3, the mice were randomly divided into five groups, with 10 mice in each group, comprising a control group, a cordycepin group, and compound 16, compound 18 and compound 24 drug groups respectively. The control group was intragastrically administrated with a nutritional agent such as a corn steep liquor and DMSO as a solvent control every day; the cordycepin group was intragastrically administrated with the cordycepin (500 ug/time/animal) every day under configuration with DMSO; and the compound drug groups were intragastrically administrated with the compounds (500 ug/time/animal) every day under configuration with DMSO. The administration was carried out for 18 consecutive days. Changes of gastric tumor sizes in the five groups of mice were observed every two days, the mice were killed after the experiment, blood and corresponding tissue samples were collected, and tumor bodies were immediately photographed and weighed.

The subject of series [3] is small cell lung cancer cell line H69. The experiment in a line: MTT proliferation, small cell lung cancer cell line H69. The format is cell-based. To be noted: read-out: IC50 (μM) of compounds in small cell lung cancer cells, H69. The essentials: as §1
Series [4] has as its system wild-type AB-line zebrafish. Particulars: 3 dpf to 5 dpf, 35° C.; survival rate>90% and teratogenicity<20%. Here is the method:
The zebrafish model is a wild-type AB-line zebrafish from College of Biotechnology and Pharmaceutical Engineering, Nanjing Tech University, and is carried out by a natural mating reproduction method, with 30 zebrafish of 2 dpf in each experimental group. The zebrafish is fed in fish culture water at 28° C. (water quality:200 mg of instant sea salt and CaCO3 are added into 1 L of reverse osmosis water with a conductivity of 480 uS/cm to 510 uS/cm, a pH value of 6.9 to 7.2, and a hardness of 53.7 mg/L to 71.6 mg/L), and the feeding management meets the requirements of international AAALAC certification.
240 3 dpf wild-type AB-line zebrafish were randomly selected in an 8-well plate, with 30 zebrafish in each well, and 3 mL of fish culture water in each well, the cordycepin was diluted according to a maximum lethal dose, dissolved in DMSO, and added into each well according to a concentration gradient (the maximum lethal dose was diluted by 100 times, in which 8 concentration gradient values were taken for the experiment), and meanwhile, a normal control group, a solvent control group G (5% glucose) and a solvent control group D (DMSO) were set. During the experiment, the zebrafish in each group were cultured at 35° C., after the zebrafish were treated to be 5 dpf with a sample to be tested, lethal and developmental malformation conditions of the zebrafish in different doses were investigated respectively, and a maximum tolerance dose (MTD) of the sample to be tested to normal zebrafish was determined under a concentration when survival rate>90% and teratogenicity<20%.

The subject of series [5] is gastric cancer cell line BGC-823. The series is described as follows: MTT proliferation, gastric cancer cell line BGC-823. The format is cell-based. Particulars: Homo sapiens, read-out: IC50 (μM) in gastric cancer cells, BGC-823. The essentials:
(§2)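 Tumour cells in exponential growth were trypsinised, seeded at 2 to 4×10^4 cells/mL, cultured 24 hours, then exposed to compounds for 72 hours. MTT was added for 4 hours, formazan dissolved in DMSO and absorbance read at 570 nm. IC50 came from an S curve of inhibition rate against concentration.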

Series [6] deals with gastric cancer cell line AGS. The experiment in a line: MTT proliferation, gastric cancer cell line AGS. The format is cell-based. To be noted: read-out: IC50 (μM) in gastric cancer cells, AGS. The essentials: as §2

As to `CC(C)OC(=O)C(C)NP(=O)(COC[C@@H]1CC(O)[C@H](n2cnc3c(NC(=O)c4ccncc4)ncnc32)O1)Oc1ccccc1` (stereo partly drawn) [Compound 24, isopropyl((((4-hydroxy-5-(6-(isonicotinamide)-9H-purin-9-yl)tetrahydrofuran-2-yl)methoxy)methyl)(phenoxy)phosphoryl)alanine ester], the half-maximal inhibitory concentration (IC50) in series [1] (Homo sapiens, NCI-H1048, 72 h) is 24.4 µM; in series [3] (72 h), 25.5 µM; in series [5] (BGC-823, 72 h), 0.09 µM; in series [6] (72 h) it was 0.13 µM. Besides, the “tumor weight, times lower than that of the control group” value in series [2] was “about 12 times”. The same compound came in with a tumor weight in series [2] of 0.14 g. The “Maximum tolerance dose (MTD) in zebrafish model” value in series [4] was 5 µM.

With `Nc1ncnc2c1ncn2[C@@H]1O[C@H](CO)C[C@H]1O` [Cordycepin, 3′-deoxyadenosine], the half-maximal inhibitory concentration (IC50) in series [1] (Homo sapiens, NCI-H1048, 72 h, MTT, 72 hours, H1048) was greater than 100 µM; in series [1] (MTT, 72 hours, H1048), 172 µM; in series [3] (MTT, 72 hours, H69), 63.1 µM; in series [5] (MTT, 72 hours, BGC-823), 235 µM; in series [6] (MTT, 72 hours, AGS), 372 µM. The “tumor weight, times lower than that of the control group” value in series [2] is reported as “about 4 times”. The compound also yielded a tumor weight in series [2] of 0.46 g. The “Maximum tolerance dose (MTD) in zebrafish model” value in series [4] came to 995 µM.

Values taken from patent US12215123B2, “Cordycepin-based derivatized compound with anti-tumor effect” (NANJING TECH UNIVERSITY, priority 2022, dated 2025).
